One compound from patent US20250325516A1, “SEROTONIN ANALOGUES FOR USE IN TREATING METALLOPTOSIS-ASSOCIATED DISORDERS” (INSTITUT CURIE, priority 2022, published 2025) can be followed below.

For experiment [1], the system named is BELA cells. The experiment is described as follows: RhoNox-M (lysosomal Fe2+ probe) flow cytometry. Type of experiment: cell-based. Particulars: 10 μM, 24 h. On the procedure: (§1) All cells were grown in an incubator equilibrated at 37° C. with 5% CO2, grown to confluence and split with Trypsin/EDTA (Gibco, TRYPGIB01) once or twice a week according to confluence. HMLER cells ([…]) naturally repressing E-cadherin, obtained from human mammary epithelial cells infected with a retrovirus carrying hTERT, SV40 and the oncogenic allele H-rasV12, and HMLER CD44 and TFRC ko clones were cultured in DMEM/F12 (Thermo Fisher Scientific, 31331093) supplemented with 10% FBS (v/v) (Thermo Fisher Scientific, 10270106), 10 μg/mL insulin (Sigma-Aldrich, 10516), 0.5 μg/mL hydrocortisone (Sigma-Aldrich, H0888) and 0.5 μg/ml puromycin (Life Technologies, A11138-02), unless stated otherwise. PDAC053 T cells were grown in serum-free ductal medium: DMEM/F12 supplemented with 0.61 g/500 mL nicotinamide (Sigma-Aldrich, 3376), 2.50 g/500 mL glucose (Sigma-Aldrich, G6152), 1:200 ITS+ (Corning, 354352), 1:20 Nu-serum IV (Corning, 355104), 100 ng/ml cholera toxin, 1 μM dexamethasone (Sigma-Aldrich, D4902), 50 nM 3,3′,5-triiodo-L-thyronine (Sigma-Aldrich, T6397) and 1× PenStrep. BELA cells were cultured using published procedures (Nat. Comm. doi: 10.1038/ncomms14750).
(§2) Bodipy-C11 (Thermo Fisher Scientific, D3861) were used according to the manufacturer's protocol. RhoNox-M (in-house) was added to live cells prior to flow cytometry analysis for 1 h at a concentration of 1 μM. For the Annexin/PI assay (Thermo Fisher Scientific, V13245, manufacturer's protocol) BELA cells were treated with RSL3 in the presence or absence of 1 μM Liproxstatin-1 (Sigma-Aldrich, SML1414) or 10 μM A3 for 24 h. Cells were then washed twice with ice-cold 1×PBS and suspended in incubation buffer prior to being analyzed by flow cytometry. The manufacturer's protocol was followed. For each condition, at least 10,000 cells were counted. Data were recorded on an Attune (Thermo Fisher Scientific) and processed using FlowJo (FLOWJO, LLC).
In general terms: Flow cytometry measures light scatter and fluorescence of single cells or particles in a stream.

Experiment [2] relates to HMLER cells. The experiment is described as follows: ICP-MS of total cellular iron and copper. Type of experiment: cell-based, human. To be noted: 100 nM, 3 h or 24 h. The procedure:
All cells were grown in an incubator equilibrated at 37° C. with 5% CO2, grown to confluence and split with Trypsin/EDTA (Gibco, TRYPGIB01) once or twice a week according to confluence. HMLER cells ([…]) naturally repressing E-cadherin, obtained from human mammary epithelial cells infected with a retrovirus carrying hTERT, SV40 and the oncogenic allele H-rasV12, and HMLER CD44 and TFRC ko clones were cultured in DMEM/F12 (Thermo Fisher Scientific, 31331093) supplemented with 10% FBS (v/v) (Thermo Fisher Scientific, 10270106), 10 μg/mL insulin (Sigma-Aldrich, 10516), 0.5 μg/mL hydrocortisone (Sigma-Aldrich, H0888) and 0.5 μg/ml puromycin (Life Technologies, A11138-02), unless stated otherwise. […]
Glass vials equipped with Teflon septa were cleaned with nitric acid 65% (w/v) (VWR, Suprapur, 1.00441.0250), washed with ultrapure water (Sigma-Aldrich, 1012620500) and dried. […] Cells were then counted using an automated cell counter (Entek) and transferred in 100 μL 1×PBS to the cleaned glass vials, and samples were lyophilized using a freeze dryer (CHRIST, 22080). […] 56Fe concentrations were measured using an Agilent 7900 ICP-QMS in low-resolution mode. […] Isotopes were measured using a collision-reaction interface with helium gas (5 mL/min) to remove polyatomic interferences. […]

Experiment [3] has as its system HMLER cells. The experiment is described as follows: Click-chemistry fluorescence microscopy with LysoTracker co-staining, HMLER cells. Type of experiment: cell-based, human. Particulars: 1 μM, 3 h, LysoTracker 45 mins, Alexa-488-N3 click. The procedure: as §1
Fluorescence microscopy of clickable serotonin analog A3: Cells were plated on cover slips 24 h prior to the experiment. […]

Experiment [4] has as its system BELA cells. The experiment is described as follows: Annexin/PI flow cytometry, RSL3-treated BELA cells (FIG. 7). The format is cell-based. To be noted: various concentrations of RSL3, 10 μM A3, 24 h. The procedure: as §2
Experiment [5] concerns Cells treated with a ferroptosis inducer. Briefly: BODIPY-C11 lipid peroxidation, cells treated with a ferroptosis inducer (FIG. 6a). The format is cell-based. To be noted: co-treatment with ferroptosis inducer. The procedure:
as §2

Experiment [6] has the same test system. Briefly: CellTiter-Blue cell viability with a ferroptosis inducer (FIG. 6b). To be noted: co-treatment with ferroptosis inducer. Type of experiment: cell-based. On the procedure: Cell viability was evaluated by plating 4,000 cells/well in 96-well plates using CellTiter-Blue viability assay according to the manufacturer's protocol. CellTiter-Blue reagent (Promega, G8081) was added after 72 h treatment and cells were incubated for 2 h before recording fluorescence intensities (Eex. 560 nm; Eem. 590 nm) using a Perkin Elmer Wallac 1420 Victor2 Microplate Reader.
A general note: The colour change of resazurin is a common sign of viable cells or microbes.

SMILES strings stand for the structures. “Also recorded” adds a separate entry of the source.

In the case of `C#CCNCCc1c[nH]c2ccc(O)cc12` [Compound A3], in experiment [1], the “RhoNox-M fluorescence (lysosomal Fe(II))” value was “increase of RhoNox-M fluorescence”. Further, in experiment [2], the “total intracellular copper (ICP-MS)” value is “increase” and the “total intracellular iron (ICP-MS)” value is on record as “increase”. The localization in lysosomes entry in experiment [3] is reported as “found to localize in lysosomes; also recorded: accumulate in lysosomes”. Besides, in experiment [4], the “cell death induced by the ferroptosis inducer RSL3 (Annexin/propidium iodide)” value is reported as “protects against RSL3-induced ferroptosis; also recorded: rescued cell death”. Also, the “lipid peroxidation (BODIPY-C11 fluorescence) induced by a ferroptosis inducer” value in experiment [5] is “reduces lipid peroxidation; also recorded: reduction of lipid peroxidation”. The “cell viability / cell death caused by a ferroptosis inducer” value in experiment [6] is listed as “rescues cell death; also recorded: rescue of cell viability”.
